Results: the NIST ThermoML archive (doi:10.1016/j.jct.2016.07.017)
± gives the expanded uncertainty stated by the source.

Experiment: activity coefficient (dimensionless); of the first substance listed, at infinite dilution; xn = mol fraction of the nth substance listed
Details: 318.15 K; 101.33 kPa; Liquid; Chromatography; x1 = 0

Structure (SMILES)	activity coefficient
Cc1ccccc1C [1,2-dimethylbenzene] + CC[N+](C)(CC)CCOC.O=S(=O)([N-]S(=O)(=O)C(F)(F)F)C(F)(F)F	1.93 ± 0.17
Cc1cccc(C)c1 [1,3-dimethylbenzene] + CC[N+](C)(CC)CCOC.O=S(=O)([N-]S(=O)(=O)C(F)(F)F)C(F)(F)F	2.12 ± 0.18
Cc1ccc(C)cc1 [1,4-dimethylbenzene] + CC[N+](C)(CC)CCOC.O=S(=O)([N-]S(=O)(=O)C(F)(F)F)C(F)(F)F	2.12 ± 0.18
C1COCCO1 [1,4-dioxane] + CC[N+](C)(CC)CCOC.O=S(=O)([N-]S(=O)(=O)C(F)(F)F)C(F)(F)F	0.66 ± 0.057
C=CCCCCCCCC [1-decene] + CC[N+](C)(CC)CCOC.O=S(=O)([N-]S(=O)(=O)C(F)(F)F)C(F)(F)F	40.4 ± 3.5
C=CCCCCC [1-heptene] + CC[N+](C)(CC)CCOC.O=S(=O)([N-]S(=O)(=O)C(F)(F)F)C(F)(F)F	13.3 ± 1.2
C#CCCCCC [1-heptyne] + CC[N+](C)(CC)CCOC.O=S(=O)([N-]S(=O)(=O)C(F)(F)F)C(F)(F)F	4.47 ± 0.39
C#CCCCC [1-hexyne] + CC[N+](C)(CC)CCOC.O=S(=O)([N-]S(=O)(=O)C(F)(F)F)C(F)(F)F	3.11 ± 0.27
CCC[N+](=O)[O-] [1-nitropropane] + CC[N+](C)(CC)CCOC.O=S(=O)([N-]S(=O)(=O)C(F)(F)F)C(F)(F)F	0.78 ± 0.066
C#CCCCCCC [1-octyne] + CC[N+](C)(CC)CCOC.O=S(=O)([N-]S(=O)(=O)C(F)(F)F)C(F)(F)F	6.47 ± 0.56
C#CCCC [1-pentyne] + CC[N+](C)(CC)CCOC.O=S(=O)([N-]S(=O)(=O)C(F)(F)F)C(F)(F)F	2.15 ± 0.19
CC(C)CC(C)(C)C [2,2,4-trimethylpentane] + CC[N+](C)(CC)CCOC.O=S(=O)([N-]S(=O)(=O)C(F)(F)F)C(F)(F)F	25.7 ± 2.2
CCC(C)(C)C [2,2-dimethylbutane] + CC[N+](C)(CC)CCOC.O=S(=O)([N-]S(=O)(=O)C(F)(F)F)C(F)(F)F	15.1 ± 1.3
CCOC(C)(C)C [2-ethoxy-2-methylpropane] + CC[N+](C)(CC)CCOC.O=S(=O)([N-]S(=O)(=O)C(F)(F)F)C(F)(F)F	6.09 ± 0.53

Same assay, conditions: 328.15 K; 101.33 kPa; Liquid; Chromatography; x1 = 0

Structure (SMILES)	activity coefficient
Cc1ccccc1C [1,2-dimethylbenzene] + CC[N+](C)(CC)CCOC.O=S(=O)([N-]S(=O)(=O)C(F)(F)F)C(F)(F)F	1.94 ± 0.17
Cc1cccc(C)c1 [1,3-dimethylbenzene] + CC[N+](C)(CC)CCOC.O=S(=O)([N-]S(=O)(=O)C(F)(F)F)C(F)(F)F	2.14 ± 0.18
Cc1ccc(C)cc1 [1,4-dimethylbenzene] + CC[N+](C)(CC)CCOC.O=S(=O)([N-]S(=O)(=O)C(F)(F)F)C(F)(F)F	2.15 ± 0.19
C1COCCO1 [1,4-dioxane] + CC[N+](C)(CC)CCOC.O=S(=O)([N-]S(=O)(=O)C(F)(F)F)C(F)(F)F	0.679 ± 0.058
C=CCCCCCCCC [1-decene] + CC[N+](C)(CC)CCOC.O=S(=O)([N-]S(=O)(=O)C(F)(F)F)C(F)(F)F	37.4 ± 3.2
C=CCCCCC [1-heptene] + CC[N+](C)(CC)CCOC.O=S(=O)([N-]S(=O)(=O)C(F)(F)F)C(F)(F)F	12.6 ± 1.1
C#CCCCCC [1-heptyne] + CC[N+](C)(CC)CCOC.O=S(=O)([N-]S(=O)(=O)C(F)(F)F)C(F)(F)F	4.43 ± 0.38
C#CCCCC [1-hexyne] + CC[N+](C)(CC)CCOC.O=S(=O)([N-]S(=O)(=O)C(F)(F)F)C(F)(F)F	3.11 ± 0.27
CCC[N+](=O)[O-] [1-nitropropane] + CC[N+](C)(CC)CCOC.O=S(=O)([N-]S(=O)(=O)C(F)(F)F)C(F)(F)F	0.778 ± 0.065
C#CCCCCCC [1-octyne] + CC[N+](C)(CC)CCOC.O=S(=O)([N-]S(=O)(=O)C(F)(F)F)C(F)(F)F	6.36 ± 0.55
C#CCCC [1-pentyne] + CC[N+](C)(CC)CCOC.O=S(=O)([N-]S(=O)(=O)C(F)(F)F)C(F)(F)F	2.17 ± 0.19
CC(C)CC(C)(C)C [2,2,4-trimethylpentane] + CC[N+](C)(CC)CCOC.O=S(=O)([N-]S(=O)(=O)C(F)(F)F)C(F)(F)F	23.8 ± 2.1
CCC(C)(C)C [2,2-dimethylbutane] + CC[N+](C)(CC)CCOC.O=S(=O)([N-]S(=O)(=O)C(F)(F)F)C(F)(F)F	14 ± 1.2
CCOC(C)(C)C [2-ethoxy-2-methylpropane] + CC[N+](C)(CC)CCOC.O=S(=O)([N-]S(=O)(=O)C(F)(F)F)C(F)(F)F	5.94 ± 0.51

Same assay, conditions: 338.15 K; 101.33 kPa; Liquid; Chromatography; x1 = 0

Structure (SMILES)	activity coefficient
Cc1ccccc1C [1,2-dimethylbenzene] + CC[N+](C)(CC)CCOC.O=S(=O)([N-]S(=O)(=O)C(F)(F)F)C(F)(F)F	1.95 ± 0.17
Cc1cccc(C)c1 [1,3-dimethylbenzene] + CC[N+](C)(CC)CCOC.O=S(=O)([N-]S(=O)(=O)C(F)(F)F)C(F)(F)F	2.14 ± 0.18
Cc1ccc(C)cc1 [1,4-dimethylbenzene] + CC[N+](C)(CC)CCOC.O=S(=O)([N-]S(=O)(=O)C(F)(F)F)C(F)(F)F	2.15 ± 0.19
C1COCCO1 [1,4-dioxane] + CC[N+](C)(CC)CCOC.O=S(=O)([N-]S(=O)(=O)C(F)(F)F)C(F)(F)F	0.704 ± 0.06
C=CCCCCCCCC [1-decene] + CC[N+](C)(CC)CCOC.O=S(=O)([N-]S(=O)(=O)C(F)(F)F)C(F)(F)F	34.4 ± 3
C=CCCCCC [1-heptene] + CC[N+](C)(CC)CCOC.O=S(=O)([N-]S(=O)(=O)C(F)(F)F)C(F)(F)F	11.9 ± 1
C#CCCCCC [1-heptyne] + CC[N+](C)(CC)CCOC.O=S(=O)([N-]S(=O)(=O)C(F)(F)F)C(F)(F)F	4.39 ± 0.38
C#CCCCC [1-hexyne] + CC[N+](C)(CC)CCOC.O=S(=O)([N-]S(=O)(=O)C(F)(F)F)C(F)(F)F	3.1 ± 0.27
CCC[N+](=O)[O-] [1-nitropropane] + CC[N+](C)(CC)CCOC.O=S(=O)([N-]S(=O)(=O)C(F)(F)F)C(F)(F)F	0.775 ± 0.065
C#CCCCCCC [1-octyne] + CC[N+](C)(CC)CCOC.O=S(=O)([N-]S(=O)(=O)C(F)(F)F)C(F)(F)F	6.21 ± 0.54
C#CCCC [1-pentyne] + CC[N+](C)(CC)CCOC.O=S(=O)([N-]S(=O)(=O)C(F)(F)F)C(F)(F)F	2.18 ± 0.19
CC(C)CC(C)(C)C [2,2,4-trimethylpentane] + CC[N+](C)(CC)CCOC.O=S(=O)([N-]S(=O)(=O)C(F)(F)F)C(F)(F)F	21.7 ± 1.9
CCC(C)(C)C [2,2-dimethylbutane] + CC[N+](C)(CC)CCOC.O=S(=O)([N-]S(=O)(=O)C(F)(F)F)C(F)(F)F	13.3 ± 1.2
CCOC(C)(C)C [2-ethoxy-2-methylpropane] + CC[N+](C)(CC)CCOC.O=S(=O)([N-]S(=O)(=O)C(F)(F)F)C(F)(F)F	5.86 ± 0.51

Same assay, conditions: 348.15 K; 101.33 kPa; Liquid; Chromatography; x1 = 0

Structure (SMILES)	activity coefficient
Cc1ccccc1C [1,2-dimethylbenzene] + CC[N+](C)(CC)CCOC.O=S(=O)([N-]S(=O)(=O)C(F)(F)F)C(F)(F)F	1.96 ± 0.17
Cc1cccc(C)c1 [1,3-dimethylbenzene] + CC[N+](C)(CC)CCOC.O=S(=O)([N-]S(=O)(=O)C(F)(F)F)C(F)(F)F	2.17 ± 0.19
Cc1ccc(C)cc1 [1,4-dimethylbenzene] + CC[N+](C)(CC)CCOC.O=S(=O)([N-]S(=O)(=O)C(F)(F)F)C(F)(F)F	2.17 ± 0.19
C1COCCO1 [1,4-dioxane] + CC[N+](C)(CC)CCOC.O=S(=O)([N-]S(=O)(=O)C(F)(F)F)C(F)(F)F	0.723 ± 0.061
C=CCCCCCCCC [1-decene] + CC[N+](C)(CC)CCOC.O=S(=O)([N-]S(=O)(=O)C(F)(F)F)C(F)(F)F	32.2 ± 2.8
C=CCCCCC [1-heptene] + CC[N+](C)(CC)CCOC.O=S(=O)([N-]S(=O)(=O)C(F)(F)F)C(F)(F)F	11.4 ± 1
C#CCCCCC [1-heptyne] + CC[N+](C)(CC)CCOC.O=S(=O)([N-]S(=O)(=O)C(F)(F)F)C(F)(F)F	4.35 ± 0.38
C#CCCCC [1-hexyne] + CC[N+](C)(CC)CCOC.O=S(=O)([N-]S(=O)(=O)C(F)(F)F)C(F)(F)F	3.1 ± 0.27
CCC[N+](=O)[O-] [1-nitropropane] + CC[N+](C)(CC)CCOC.O=S(=O)([N-]S(=O)(=O)C(F)(F)F)C(F)(F)F	0.772 ± 0.065
C#CCCCCCC [1-octyne] + CC[N+](C)(CC)CCOC.O=S(=O)([N-]S(=O)(=O)C(F)(F)F)C(F)(F)F	6.11 ± 0.53
C#CCCC [1-pentyne] + CC[N+](C)(CC)CCOC.O=S(=O)([N-]S(=O)(=O)C(F)(F)F)C(F)(F)F	2.19 ± 0.19
CC(C)CC(C)(C)C [2,2,4-trimethylpentane] + CC[N+](C)(CC)CCOC.O=S(=O)([N-]S(=O)(=O)C(F)(F)F)C(F)(F)F	21 ± 1.8
CCC(C)(C)C [2,2-dimethylbutane] + CC[N+](C)(CC)CCOC.O=S(=O)([N-]S(=O)(=O)C(F)(F)F)C(F)(F)F	12.5 ± 1.1
CCOC(C)(C)C [2-ethoxy-2-methylpropane] + CC[N+](C)(CC)CCOC.O=S(=O)([N-]S(=O)(=O)C(F)(F)F)C(F)(F)F	5.71 ± 0.49

Same assay, conditions: 358.15 K; 101.33 kPa; Liquid; Chromatography; x1 = 0

Structure (SMILES)	activity coefficient
Cc1ccccc1C [1,2-dimethylbenzene] + CC[N+](C)(CC)CCOC.O=S(=O)([N-]S(=O)(=O)C(F)(F)F)C(F)(F)F	1.97 ± 0.17
Cc1cccc(C)c1 [1,3-dimethylbenzene] + CC[N+](C)(CC)CCOC.O=S(=O)([N-]S(=O)(=O)C(F)(F)F)C(F)(F)F	2.18 ± 0.19
Cc1ccc(C)cc1 [1,4-dimethylbenzene] + CC[N+](C)(CC)CCOC.O=S(=O)([N-]S(=O)(=O)C(F)(F)F)C(F)(F)F	2.18 ± 0.19
C1COCCO1 [1,4-dioxane] + CC[N+](C)(CC)CCOC.O=S(=O)([N-]S(=O)(=O)C(F)(F)F)C(F)(F)F	0.734 ± 0.062
C=CCCCCCCCC [1-decene] + CC[N+](C)(CC)CCOC.O=S(=O)([N-]S(=O)(=O)C(F)(F)F)C(F)(F)F	29.8 ± 2.6
C=CCCCCC [1-heptene] + CC[N+](C)(CC)CCOC.O=S(=O)([N-]S(=O)(=O)C(F)(F)F)C(F)(F)F	10.9 ± 0.9
C#CCCCCC [1-heptyne] + CC[N+](C)(CC)CCOC.O=S(=O)([N-]S(=O)(=O)C(F)(F)F)C(F)(F)F	4.29 ± 0.37
C#CCCCC [1-hexyne] + CC[N+](C)(CC)CCOC.O=S(=O)([N-]S(=O)(=O)C(F)(F)F)C(F)(F)F	3.08 ± 0.27
CCC[N+](=O)[O-] [1-nitropropane] + CC[N+](C)(CC)CCOC.O=S(=O)([N-]S(=O)(=O)C(F)(F)F)C(F)(F)F	0.77 ± 0.065
C#CCCCCCC [1-octyne] + CC[N+](C)(CC)CCOC.O=S(=O)([N-]S(=O)(=O)C(F)(F)F)C(F)(F)F	5.97 ± 0.52
C#CCCC [1-pentyne] + CC[N+](C)(CC)CCOC.O=S(=O)([N-]S(=O)(=O)C(F)(F)F)C(F)(F)F	2.21 ± 0.19
CC(C)CC(C)(C)C [2,2,4-trimethylpentane] + CC[N+](C)(CC)CCOC.O=S(=O)([N-]S(=O)(=O)C(F)(F)F)C(F)(F)F	20 ± 1.7
CCC(C)(C)C [2,2-dimethylbutane] + CC[N+](C)(CC)CCOC.O=S(=O)([N-]S(=O)(=O)C(F)(F)F)C(F)(F)F	11.9 ± 1
CCOC(C)(C)C [2-ethoxy-2-methylpropane] + CC[N+](C)(CC)CCOC.O=S(=O)([N-]S(=O)(=O)C(F)(F)F)C(F)(F)F	5.59 ± 0.48
